Literature values as cited in US12226503B2, “Prebiotic skin care compositions containing carboxylic acids” (priority 2019, dated 2025).

Details: toxic or irritant for humans or on skin
In the case of `O=C(O)CC(O)C(=O)O` (racemic) [D,L-Malic acid], the Toxicity is given as “+”.
In the case of `CCC(N)C(=O)O` (racemic) [D,L-α-amino-N-butyric acid], the Toxicity is given as “+”.
In the case of `CCCCCCC(N)C(=O)O` (racemic) [D,L-α-amino-caprylic acid], the Toxicity is given as “+”.
For `O=C(O)c1ccc(O)cc1` [4-hydroxybenzoic acid], the Toxicity is given as “+”.
For `O=C(O)[C@@H](O)[C@@H](O)[C@H](O)[C@@H](O)C(=O)O` [D-saccharic acid], the Toxicity is listed as “+”.
For `COc1cc(/C=C/C(=O)O)ccc1O` [Ferulic acid], the Toxicity is listed as “+”.
In the case of `O=C(O)/C=C/C(=O)O` [Fumaric acid], the Toxicity is given as “+”.
In the case of `O=C(O)c1cc(O)c(O)c(O)c1` [Gallic acid], the Toxicity is listed as “+”.
For `O=CC(=O)O` [Glyoxylic acid], the Toxicity is listed as “+”.
In the case of `O=C(O)CNC(=O)c1ccccc1` [Hippuric acid], the Toxicity is listed as “+”.
In the case of `C[C@H](O)C(=O)O` [L-lactic acid], the Toxicity is listed as “+”.
For `O=C(O)[C@@H](O)[C@H](O)[C@H](O)[C@@H](O)C(=O)O` [Mucic acid], the Toxicity is listed as “+”.
For `CC(=O)N[C@H]1[C@H]([C@H](O)[C@H](O)CO)O[C@](O)(C(=O)O)C[C@@H]1O` [N-acetyl-neuraminic acid], the Toxicity is listed as “+”.
For `CCCCCCCCCCCCCCCCCC(=O)O` [Stearic acid], the Toxicity is given as “+”.
For `O=C(O)C(CO)c1ccccc1` (stereo not shown) [Tropic acid], the Toxicity is listed as “+”.
For `CC(O)CC(=O)O` (stereo not drawn) [β-hydroxybutyric acid], the Toxicity is given as “+”.
In the case of `NCCCC(=O)O` [γ-Aminobutyric acid], the Toxicity is given as “+”.
For `NCCCCCC(=O)O` [ε-Amino-N-caproic acid], the Toxicity is listed as “+”.
For Citric acid, the Toxicity is listed as “+”.
